In BindingDB's records for doi:10.1021/jm021114j (Cardiff University, 2003):

Biological target: Sterol 24-C-methyltransferase (Leishmania major)
Assay: In vitro inhibitory concentration against Leishmania major Sterol 24-C-methyltransferase (24-SMT)

Row | IC50 [µM] | Compound
1 | 12.2 | CC(O)(C1CCCCN1)[C@H]1CC[C@H]2[C@@H]3CCC4C[C@@H](O[Si](C)(C)C(C)(C)C)CC[C@]4(C)[C@H]3CC[C@]12C (stereo not given in full)
2 | 8 | CC(O)(C1CCCNC1)[C@H]1CCC2C3CCC4C[C@@H](O[Si](C)(C)C(C)(C)C)CC[C@]4(C)C3CC[C@@]21C (stereo partly drawn) [1-[(3S,10S,13S,17S)-3-(tert-Butyl-dimethyl-silanyloxy)-10,13-dimethyl-hexadecahydro-cyclopenta[a]phenanthren-17-yl]-1-piperidin-3-yl-ethanol]
3 | 12.9 | CCC(=O)N1CCCCC1C(C)(O)[C@H]1CCC2C3CCC4C[C@@H](O)CC[C@]4(C)C3CC[C@@]21C (stereo partly drawn) [1-{2-[1-Hydroxy-1-((3S,10S,13S,17S)-3-hydroxy-10,13-dimethyl-hexadecahydro-cyclopenta[a]phenanthren-17-yl)-ethyl]-piperidin-1-yl}-propan-1-one]
4 | 0.1 | CC(O)(C1CCCNC1)[C@H]1CCC2C3CCC4C[C@@H](O)CC[C@]4(C)C3CC[C@@]21C (stereo partly drawn) [(3S,10S,13S,17S)-17-(1-Hydroxy-1-piperidin-3-yl-ethyl)-10,13-dimethyl-hexadecahydro-cyclopenta[a]phenanthren-3-ol]
5 | 38.5 | CC(O)(c1cccnc1)[C@H]1CCC2C3CCC4C[C@@H](O)CC[C@]4(C)C3CC[C@@]21C (stereo partly drawn) [(3S,10S,13S,17S)-17-(1-Hydroxy-1-pyridin-3-yl-ethyl)-10,13-dimethyl-hexadecahydro-cyclopenta[a]phenanthren-3-ol]
